{
  "source": "patent US11793849B2",
  "about": "“Method of Chinese herbal medicine extract used for treating multiple diseases caused by drug resistant bacteria infection” (priority 2016, dated 2023)",
  "key": {"MDRAB": {"test_system": "MDRAB", "assay": "MIC determination, microdilution broth method", "format": "cell-based, Acinetobacter baumannii"}, "ATCC27853": {"test_system": "ATCC27853", "assay": "MIC determination, control strain", "format": "cell-based"}, "[1]": {"conditions": "single use, 20 MDRABs, EA=10% ethanol extract"}, "[2]": {"conditions": "single use, 20 MDRABs, EA=water extract"}, "[3]": {"conditions": "single use, 20 MDRABs, section of the 95% ethanol extract"}},
  "note": "Like-named read-outs stand apart in the source and are kept apart here.",
  "data": [
    {"smiles": "C[C@H]1COc2c(N3CCN(C)CC3)c(F)cc3c(=O)c(C(=O)O)cn1c23", "note": "[LVX, Levofloxacin]", "values": [
      {"measurement": "MIC", "setting": "MDRAB; Acinetobacter baumannii, strain A13, single use, EA=10% ethanol extract, read-out: MIC", "value": 32, "unit": "µg/mL"},
      {"measurement": "MIC", "setting": "MDRAB; Acinetobacter baumannii, strain A13, single use, EA=water extract, read-out: MIC", "value": 32, "unit": "µg/mL"},
      {"measurement": "MIC", "setting": "MDRAB; Acinetobacter baumannii, strain A14, EA=60% ethanol extract, read-out: MIC", "value": 16, "unit": "µg/mL"},
      {"measurement": "MIC", "setting": "MDRAB; Acinetobacter baumannii, strain A14, EA=95% ethanol extract, read-out: MIC", "value": 16, "unit": "µg/mL"},
      {"measurement": "MIC", "setting": "MDRAB; Acinetobacter baumannii, strain A14, EA=P. clypearia 95% ethanol extract, read-out: single-use MIC", "value": 16, "unit": "µg/mL"},
      {"measurement": "MIC", "setting": "MDRAB; Acinetobacter baumannii, strain A14, single use, EA=10% ethanol extract, read-out: MIC", "value": 16, "unit": "µg/mL"},
      {"measurement": "MIC", "setting": "MDRAB; Acinetobacter baumannii, strain A14, single use, EA=water extract, read-out: MIC", "value": 16, "unit": "µg/mL"},
      {"measurement": "MIC", "setting": "MDRAB; Acinetobacter baumannii, strain A15, EA=60% ethanol extract, read-out: MIC", "value": 32, "unit": "µg/mL"},
      {"measurement": "MIC", "setting": "MDRAB; Acinetobacter baumannii, strain A15, EA=95% ethanol extract, read-out: MIC", "value": 32, "unit": "µg/mL"},
      {"measurement": "MIC", "setting": "MDRAB; Acinetobacter baumannii, strain A15, EA=P. clypearia 95% ethanol extract, read-out: single-use MIC", "value": 32, "unit": "µg/mL"},
      {"measurement": "MIC", "setting": "MDRAB; Acinetobacter baumannii, strain A15, single use, EA=10% ethanol extract, read-out: MIC", "value": 32, "unit": "µg/mL"},
      {"measurement": "MIC", "setting": "MDRAB; Acinetobacter baumannii, strain A15, single use, EA=water extract, read-out: MIC", "value": 32, "unit": "µg/mL"},
      {"measurement": "MIC", "setting": "MDRAB; Acinetobacter baumannii, strain A16, EA=60% ethanol extract, read-out: MIC", "value": 8, "unit": "µg/mL"},
      {"measurement": "MIC", "setting": "MDRAB; Acinetobacter baumannii, strain A16, EA=95% ethanol extract, read-out: MIC", "value": 8, "unit": "µg/mL"},
      {"measurement": "MIC", "setting": "MDRAB; Acinetobacter baumannii, strain A16, EA=P. clypearia 95% ethanol extract, read-out: single-use MIC", "value": 8, "unit": "µg/mL"},
      {"measurement": "MIC", "setting": "MDRAB; Acinetobacter baumannii, strain A16, single use, EA=10% ethanol extract, read-out: MIC", "value": 8, "unit": "µg/mL"},
      {"measurement": "MIC", "setting": "MDRAB; Acinetobacter baumannii, strain A16, single use, EA=water extract, read-out: MIC", "value": 8, "unit": "µg/mL"},
      {"measurement": "MIC", "setting": "MDRAB; Acinetobacter baumannii, strain A17, EA=60% ethanol extract, read-out: MIC", "value": 16, "unit": "µg/mL"},
      {"measurement": "MIC", "setting": "MDRAB; Acinetobacter baumannii, strain A17, EA=95% ethanol extract, read-out: MIC", "value": 16, "unit": "µg/mL"},
      {"measurement": "MIC", "setting": "MDRAB; Acinetobacter baumannii, strain A17, EA=P. clypearia 95% ethanol extract, read-out: single-use MIC", "value": 16, "unit": "µg/mL"},
      {"measurement": "MIC", "setting": "MDRAB; Acinetobacter baumannii, strain A17, single use, EA=10% ethanol extract, read-out: MIC", "value": 16, "unit": "µg/mL"},
      {"measurement": "MIC", "setting": "MDRAB; Acinetobacter baumannii, strain A17, single use, EA=water extract, read-out: MIC", "value": 16, "unit": "µg/mL"},
      {"measurement": "MIC", "setting": "MDRAB; Acinetobacter baumannii, strain A18, EA=60% ethanol extract, read-out: MIC", "value": 8, "unit": "µg/mL"},
      {"measurement": "MIC", "setting": "MDRAB; Acinetobacter baumannii, strain A18, EA=95% ethanol extract, read-out: MIC", "value": 8, "unit": "µg/mL"},
      {"measurement": "MIC", "setting": "MDRAB; Acinetobacter baumannii, strain A18, EA=P. clypearia 95% ethanol extract, read-out: single-use MIC", "value": 8, "unit": "µg/mL"},
      {"measurement": "MIC", "setting": "MDRAB; Acinetobacter baumannii, strain A18, single use, EA=10% ethanol extract, read-out: MIC", "value": 8, "unit": "µg/mL"},
      {"measurement": "MIC", "setting": "MDRAB; Acinetobacter baumannii, strain A18, single use, EA=water extract, read-out: MIC", "value": 8, "unit": "µg/mL"},
      {"measurement": "MIC", "setting": "MDRAB; Acinetobacter baumannii, strain A19, EA=60% ethanol extract, read-out: MIC", "value": 16, "unit": "µg/mL"},
      {"measurement": "MIC", "setting": "MDRAB; Acinetobacter baumannii, strain A19, EA=95% ethanol extract, read-out: MIC", "value": 16, "unit": "µg/mL"},
      {"measurement": "MIC", "setting": "MDRAB; Acinetobacter baumannii, strain A19, EA=P. clypearia 95% ethanol extract, read-out: single-use MIC", "value": 16, "unit": "µg/mL"},
      {"measurement": "MIC", "setting": "MDRAB; Acinetobacter baumannii, strain A19, single use, EA=10% ethanol extract, read-out: MIC", "value": 16, "unit": "µg/mL"},
      {"measurement": "MIC", "setting": "MDRAB; Acinetobacter baumannii, strain A19, single use, EA=water extract, read-out: MIC", "value": 16, "unit": "µg/mL"},
      {"measurement": "MIC", "setting": "MDRAB; Acinetobacter baumannii, strain A20, EA=60% ethanol extract, read-out: MIC", "value": 16, "unit": "µg/mL"},
      {"measurement": "MIC", "setting": "MDRAB; Acinetobacter baumannii, strain A20, EA=95% ethanol extract, read-out: MIC", "value": 16, "unit": "µg/mL"},
      {"measurement": "MIC", "setting": "MDRAB; Acinetobacter baumannii, strain A20, EA=P. clypearia 95% ethanol extract, read-out: single-use MIC", "value": 16, "unit": "µg/mL"},
      {"measurement": "MIC", "setting": "MDRAB; Acinetobacter baumannii, strain A20, single use, EA=10% ethanol extract, read-out: MIC", "value": 16, "unit": "µg/mL"},
      {"measurement": "MIC", "setting": "MDRAB; Acinetobacter baumannii, strain A20, single use, EA=water extract, read-out: MIC", "value": 16, "unit": "µg/mL"},
      {"measurement": "MIC", "setting": "MDRAB; Acinetobacter baumannii, strain AS, EA=P. clypearia 95% ethanol extract, read-out: single-use MIC", "value": 4, "unit": "µg/mL"},
      {"measurement": "MIC50", "setting": "MDRAB; Acinetobacter baumannii, single use, 20 MDRABs, section of the 60% ethanol extract, read-out: MIC50", "value": 8, "unit": "µg/mL"},
      {"measurement": "MIC90", "setting": "MDRAB; Acinetobacter baumannii, single use, 20 MDRABs, section of the 60% ethanol extract, read-out: MIC90", "value": 32, "unit": "µg/mL"},
      {"measurement": "MIC50", "setting": "MDRAB; MDRABs, EA=60% ethanol extract", "value": 8, "unit": "µg/mL"},
      {"measurement": "MIC90", "setting": "MDRAB; MDRABs, EA=60% ethanol extract", "value": 32, "unit": "µg/mL"},
      {"measurement": "MIC Range", "setting": "MDRAB; MDRABs, EA=60% ethanol extract", "value": "0.5 to 32", "unit": "µg/mL"},
      {"measurement": "MIC50", "setting": "MDRAB; MDRABs, EA=95% ethanol extract", "value": 8, "unit": "µg/mL"},
      {"measurement": "MIC90", "setting": "MDRAB; MDRABs, EA=95% ethanol extract", "value": 32, "unit": "µg/mL"},
      {"measurement": "MIC Range", "setting": "MDRAB; MDRABs, EA=95% ethanol extract", "value": "0.5 to 32", "unit": "µg/mL"},
      {"measurement": "MIC50", "setting": "MDRAB; [1]", "value": 8, "unit": "µg/mL"},
      {"measurement": "MIC90", "setting": "MDRAB; [1]", "value": 32, "unit": "µg/mL"},
      {"measurement": "MIC Range", "setting": "MDRAB; [1]", "value": "0.5 to 32", "unit": "µg/mL"},
      {"measurement": "MIC50", "setting": "MDRAB; [2]", "value": 8, "unit": "µg/mL"},
      {"measurement": "MIC90", "setting": "MDRAB; [2]", "value": 32, "unit": "µg/mL"},
      {"measurement": "MIC Range", "setting": "MDRAB; [2]", "value": "0.5 to 32", "unit": "µg/mL"},
      {"measurement": "MIC50", "setting": "MDRAB; [3]", "value": 8, "unit": "µg/mL"},
      {"measurement": "MIC90", "setting": "MDRAB; [3]", "value": 32, "unit": "µg/mL"},
      {"measurement": "MIC", "setting": "ATCC27853; EA=10% ethanol extract, read-out: MIC", "value": 1, "unit": "µg/mL"},
      {"measurement": "MIC", "setting": "ATCC27853; EA=60% ethanol extract, read-out: MIC", "value": 1, "unit": "µg/mL"},
      {"measurement": "MIC", "setting": "ATCC27853; EA=95% ethanol extract, read-out: MIC", "value": 1, "unit": "µg/mL"},
      {"measurement": "MIC", "setting": "ATCC27853; EA=P. clypearia 10% ethanol extract, read-out: MIC (single use)", "value": 1, "unit": "µg/mL"},
      {"measurement": "MIC", "setting": "ATCC27853; EA=P. clypearia water extract, read-out: MIC (single use)", "value": 1, "unit": "µg/mL"},
      {"measurement": "MIC", "setting": "ATCC27853; EA=water extract, read-out: MIC", "value": 1, "unit": "µg/mL"},
      {"measurement": "MIC", "setting": "ATCC27853; single use, EA = 60% ethanol extract, read-out: MIC", "value": 1, "unit": "µg/mL"},
      {"measurement": "MIC", "setting": "ATCC27853; single use, EA = 95% ethanol extract, read-out: MIC", "value": 1, "unit": "µg/mL"}
    ]}
  ]
}
